Assay results taken from ChEMBL document CHEMBL5321229, “Conformationally locked sugar derivatives and analogues as potential neuraminidase inhibitors” (Eur J Med Chem, 2023).

Target: Neuraminidase (Influenza A virus (A/Memphis/1/1971(H3N2)), UniProt P03471, E119V)
Test: Inhibition of influenza A virus H3N2 (A/Moscow/10/99) harboring E119V mutant neuraminidase using MUNANA as substrate preincubated for 30 mins followed by substrate addition by fluorescence-based assay

SMILES: CCC(CC)O[C@@H]1C=C(C(=O)O)C[C@H](n2nncc2-c2cccc(N)c2)[C@H]1NC(C)=O
- IC50: 790 nM
